Test results: ChEMBL document CHEMBL4715826, “Selective PPARδ Modulators Improve Mitochondrial Function: Potential Treatment for Duchenne Muscular Dystrophy (DMD)” (ACS Med Chem Lett, 2018)
pEC50, pIC50: −log10 of the molar value. One block for each compound: values may come before it. Calls of active or inactive are those of the source. The rule behind the calls is not given here.

What was measured:
[1] = Selectivity index, ratio of EC50 for transactivation of GAL4-fused PPARalpha LBD (unknown origin) transfected in CV1 cells to EC50 for transactivation of GAL4-fused human PPARdelta LBD (128 to residue at C-terminus) transfected in African green monkey CV1 cells by luciferase reporter gene assay
[2] = Clearance in CD-1 mouse at 3 mg/kg, iv; format: ADME, organism-based; details: in vivo
[3] = Half life in CD-1 mouse at 3 mg/kg, iv; format: ADME, organism-based; details: in vivo
[4] = AUC in CD-1 mouse at 3 mg/kg, iv; format: ADME, organism-based; parameters: dose 3 mg/kg; details: in vivo
[5] = target: T1, Peroxisome proliferator-activated receptor gamma (Homo sapiens, UniProt P37231); test: Modulator activity at GAL4-fused human PPARgamma LBD (unknown origin) transfected in African green monkey CV1 cells assessed as receptor transactivation by luciferase reporter gene assay; format: cell-based, CV-1
T1 sequence (P37231 whole entry): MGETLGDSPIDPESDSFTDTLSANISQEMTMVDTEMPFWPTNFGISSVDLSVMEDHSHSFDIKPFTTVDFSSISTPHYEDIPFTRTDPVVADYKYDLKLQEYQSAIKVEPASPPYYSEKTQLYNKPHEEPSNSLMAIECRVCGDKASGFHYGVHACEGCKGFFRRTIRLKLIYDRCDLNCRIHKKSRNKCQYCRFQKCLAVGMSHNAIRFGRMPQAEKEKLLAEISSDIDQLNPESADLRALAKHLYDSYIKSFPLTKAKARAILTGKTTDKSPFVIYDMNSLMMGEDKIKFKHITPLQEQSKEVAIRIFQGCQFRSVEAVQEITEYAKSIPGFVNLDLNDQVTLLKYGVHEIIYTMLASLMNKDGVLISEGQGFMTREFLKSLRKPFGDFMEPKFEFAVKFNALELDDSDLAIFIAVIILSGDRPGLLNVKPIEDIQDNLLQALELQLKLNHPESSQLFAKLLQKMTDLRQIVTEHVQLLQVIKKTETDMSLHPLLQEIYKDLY

[6] = target: T2, Peroxisome proliferator-activated receptor alpha (Homo sapiens, UniProt Q07869); test: Modulator activity at GAL4-fused human PPARalpha LBD (unknown origin) transfected in African green monkey CV1 cells assessed as receptor transactivation by luciferase reporter gene assay; format: cell-based, CV-1
T2 sequence (Q07869 whole entry): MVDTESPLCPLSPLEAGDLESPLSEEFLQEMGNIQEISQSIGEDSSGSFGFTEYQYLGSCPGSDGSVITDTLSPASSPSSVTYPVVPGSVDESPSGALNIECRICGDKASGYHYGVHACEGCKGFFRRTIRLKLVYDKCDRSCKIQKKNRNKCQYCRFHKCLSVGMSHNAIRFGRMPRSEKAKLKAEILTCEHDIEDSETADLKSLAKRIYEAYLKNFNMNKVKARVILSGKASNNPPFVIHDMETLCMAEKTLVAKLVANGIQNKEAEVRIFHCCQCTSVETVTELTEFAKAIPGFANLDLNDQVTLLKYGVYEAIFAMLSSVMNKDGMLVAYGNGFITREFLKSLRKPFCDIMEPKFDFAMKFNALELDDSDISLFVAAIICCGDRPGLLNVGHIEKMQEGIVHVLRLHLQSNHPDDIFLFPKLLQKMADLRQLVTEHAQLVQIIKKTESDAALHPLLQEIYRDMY

[7] = target: T3, Peroxisome proliferator-activated receptor delta (Homo sapiens, UniProt Q03181)
T3 sequence (Q03181 whole entry): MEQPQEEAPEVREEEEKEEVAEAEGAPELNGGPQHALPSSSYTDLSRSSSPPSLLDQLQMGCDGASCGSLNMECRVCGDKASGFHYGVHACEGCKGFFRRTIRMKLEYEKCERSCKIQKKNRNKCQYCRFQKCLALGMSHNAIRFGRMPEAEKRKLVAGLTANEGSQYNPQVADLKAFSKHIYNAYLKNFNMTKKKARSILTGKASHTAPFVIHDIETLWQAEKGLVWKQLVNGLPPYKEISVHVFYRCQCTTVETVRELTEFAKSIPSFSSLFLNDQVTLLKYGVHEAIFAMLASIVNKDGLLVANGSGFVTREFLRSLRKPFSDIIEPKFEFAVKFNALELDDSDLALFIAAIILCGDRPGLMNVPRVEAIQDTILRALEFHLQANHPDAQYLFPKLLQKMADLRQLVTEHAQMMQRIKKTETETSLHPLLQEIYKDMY
Description: Modulator activity at GAL4-fused human PPARdelta LBD (128 to residue at C-terminus) transfected in African green monkey CV1 cells assessed as receptor transactivation by luciferase reporter gene assay

[8] = Half life in CD-1 mouse at 1 mg/kg, iv; format: ADME, organism-based; details: in vivo
[9] = Protein binding in human plasma; format: ADME, cell-free; details: read-out: PPB
[10] = AUC in cynomolgus monkey at 10 mg/kg, po; format: ADME, organism-based, Macaca fascicularis; parameters: dose 10 mg/kg; details: in vivo
[11] = Cmax in CD-1 mouse at 3 mg/kg, po; format: ADME, organism-based; parameters: route oral, dose 3 mg/kg; details: in vivo
[12] = Volume of distribution at steady state in cynomolgus monkey at 3 mg/kg, iv; format: ADME, organism-based, Macaca fascicularis; details: in vivo
CYP2C9 = CYP2C9 (Homo sapiens, UniProt P11712); test: Inhibition of CYP2C9 (unknown origin) at 10 uM relative to control; format: ADME
[13] = Cmax in cynomolgus monkey at 10 mg/kg, po; format: ADME, organism-based, Macaca fascicularis; parameters: route oral, dose 10 mg/kg; details: in vivo
[14] = AUC in Wistar rat at 1 mg/kg, iv; format: ADME, organism-based; parameters: dose 1 mg/kg; details: in vivo
[15] = Inhibition of CYP450 (unknown origin); format: ADME, Homo sapiens
[16] = target: T4, Peroxisome proliferator-activated receptor delta (Mus musculus) (UniProt P35396); test: Modulator activity at PPARdelta in […] primary myoblasts derived from DMD patient assessed as upregulation of ANGPTL4 gene expression at 0.4 nM measured after 48 hrs; format: tissue-based; details: Primary myotube, filed as modulator
T4 sequence (whole entry): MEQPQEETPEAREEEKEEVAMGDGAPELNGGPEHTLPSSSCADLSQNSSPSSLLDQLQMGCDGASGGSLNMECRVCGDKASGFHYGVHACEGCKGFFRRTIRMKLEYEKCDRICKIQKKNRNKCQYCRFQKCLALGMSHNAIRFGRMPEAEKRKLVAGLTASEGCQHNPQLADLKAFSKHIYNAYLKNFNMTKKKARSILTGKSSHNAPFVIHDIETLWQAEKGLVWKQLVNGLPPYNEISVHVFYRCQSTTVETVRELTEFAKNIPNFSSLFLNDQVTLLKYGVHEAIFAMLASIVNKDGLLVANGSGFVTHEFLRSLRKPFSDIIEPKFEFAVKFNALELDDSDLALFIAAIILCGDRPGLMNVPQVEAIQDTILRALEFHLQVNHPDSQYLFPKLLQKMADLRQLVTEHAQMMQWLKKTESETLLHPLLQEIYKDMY

[17] = Half life in cynomolgus monkey at 3 mg/kg, iv; format: ADME, organism-based, Macaca fascicularis; details: in vivo
[18] = Protein binding in mouse plasma; format: ADME, cell-free; details: read-out: PPB (converted)
[19] = target: T5, Peroxisome proliferator-activated receptor delta (Mus musculus, UniProt P35396); test: Modulator activity at mouse PPARdelta
T5 sequence (P35396 whole entry): T4 sequence (whole entry)

[20] = Clearance in Wistar rat at 1 mg/kg, iv; format: ADME, organism-based; details: in vivo
[21] = Half life in cynomolgus monkey at 10 mg/kg, po; format: ADME, organism-based, Macaca fascicularis; details: in vivo
[22] = Protein binding in rat plasma; format: ADME, cell-free; details: read-out: PPB (converted)
Mus musculus = test: In vivo modulator activity at PPARdelta in C57BL/6JRccHsd mouse skeletal muscle assessed as increase in Pdk4 gene expression at 30 to 100 mg/kg, po administered for 9 days and measured at 2 hrs after final administration by qPCR analysis; format: functional, organism-based; details: dose 30-100 mg/kg, time 9.0 day
[23] = Oral bioavailability in CD-1 mouse at 3 mg/kg; format: ADME, organism-based; details: in vivo
[24] = Permeability across apical to basolateral side in human Caco2 cells; format: ADME, cell-based; details: Caco-2, read-out: permeability
[25] = Volume of distribution at steady state in CD-1 mouse at 1 mg/kg, iv; format: ADME, organism-based; details: in vivo, read-out: Vdss
[26] = AUC in cynomolgus monkey at 3 mg/kg, iv; format: ADME, organism-based, Macaca fascicularis; parameters: dose 3 mg/kg; details: in vivo
[27] = Cmax in Wistar rat at 3 mg/kg, po; format: ADME, organism-based; parameters: route oral, dose 3 mg/kg; details: in vivo
[28] = AUC in CD-1 mouse at 3 mg/kg, po; format: ADME, organism-based; parameters: dose 3 mg/kg; details: in vivo
[29] = AUC in CD-1 mouse at 1 mg/kg, iv; format: ADME, organism-based; parameters: dose 1 mg/kg; details: in vivo
[30] = AUC in Wistar rat at 3 mg/kg, po; format: ADME, organism-based; parameters: dose 3 mg/kg; details: in vivo
[31] = target: T4, Peroxisome proliferator-activated receptor delta (Mus musculus); test: Modulator activity at PPARdelta in […] primary myoblasts derived from DMD patient assessed as upregulation of PDK4 gene expression at 0.4 nM measured after 48 hrs; format: tissue-based; details: Primary myotube, filed as modulator
[32] = Half life in Wistar rat at 3 mg/kg, po; format: ADME, organism-based; details: in vivo
[33] = Permeability across basolateral to apical side in human Caco2 cells; format: ADME, cell-based; details: Caco-2, read-out: permeability
[34] = Modulator activity at rat PPARdelta
[35] = Volume of distribution at steady state in Wistar rat at 1 mg/kg, iv; format: ADME, organism-based; details: in vivo, read-out: Vdss
[36] = Oral bioavailability in Wistar rat at 3 mg/kg; format: ADME, organism-based; details: in vivo
[37] = Half life in CD-1 mouse at 3 mg/kg, po; format: ADME, organism-based; details: in vivo
[38] = Oral bioavailability in cynomolgus monkey at 10 mg/kg; format: ADME, organism-based, Macaca fascicularis; details: in vivo
[39] = Half life in Wistar rat at 1 mg/kg, iv; format: ADME, organism-based; details: in vivo
[40] = target: T4, Peroxisome proliferator-activated receptor delta (Mus musculus); test: Modulator activity at PPARdelta in […] primary myoblasts derived from DMD patient assessed as upregulation of ANGPTL4 gene expression at 0.04 nM measured after 48 hrs; format: tissue-based; details: Primary myotube
[41] = target: T4, Peroxisome proliferator-activated receptor delta (Mus musculus); test: Modulator activity at PPARdelta in […] primary myoblasts derived from DMD patient assessed as upregulation of PDK4 gene expression at 0.04 nM measured after 48 hrs; format: tissue-based; details: Primary myotube
[42] = Mutagenicity in Salmonella typhimurium by mini Ames test; format: toxicity; details: salmonella enterica subsp. enterica serovar typhimurium

Sequence of CYP2C9 (P11712 whole entry): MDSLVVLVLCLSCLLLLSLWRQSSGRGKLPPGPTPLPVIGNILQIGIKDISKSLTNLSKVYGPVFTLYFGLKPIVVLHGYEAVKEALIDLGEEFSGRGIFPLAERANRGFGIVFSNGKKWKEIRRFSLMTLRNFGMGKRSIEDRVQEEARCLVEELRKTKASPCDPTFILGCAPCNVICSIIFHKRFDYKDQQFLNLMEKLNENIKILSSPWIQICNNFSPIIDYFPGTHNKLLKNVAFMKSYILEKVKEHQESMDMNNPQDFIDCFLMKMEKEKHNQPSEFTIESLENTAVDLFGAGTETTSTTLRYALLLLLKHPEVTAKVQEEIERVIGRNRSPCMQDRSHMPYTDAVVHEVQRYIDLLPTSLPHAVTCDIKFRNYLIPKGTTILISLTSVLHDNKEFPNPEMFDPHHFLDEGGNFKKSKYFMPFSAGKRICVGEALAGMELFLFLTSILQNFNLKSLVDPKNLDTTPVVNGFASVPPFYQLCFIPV

SMILES: C/C(=C\COc1ccccc1Cc1c(C)nnn1-c1ccc(-c2ccco2)cc1)CCC(=O)O
- Ratio EC50 [1]: >1000
- clearance [2]: 225 mL/min/kg
- half-life [3]: 0.2 h
- pEC50 [7]: 8.08
- AUC [4]: 220 ng·h/mL
- pEC50 [5]: < 5.00
- pEC50 [6]: 4.77

SMILES: Cc1cnc(-c2ccc(OC(F)(F)F)cc2)n1Cc1ccccc1OCCC[C@@H](C)CC(=O)O
- half-life [8]: 2.7 h
- fraction unbound [9]: 0.001
- AUC [10]: 3840 ng·h/mL
- Cmax [11]: 510 ng/mL
- Vdss [12]: 3.2 L/kg
- inhibition at 10 µM (CYP2C9): 56%
- Cmax [13]: 1660 ng/mL
- AUC [14]: 1590 ng·h/mL
- pIC50 [15]: ≤ 5.00
- Activity [16]: 98%
- t1/2 [17]: 6.1 h
- clearance [2]: 25 mL/min/kg
- fraction unbound [18]: 0.005
- pEC50 [19]: 8.10
- clearance [20]: 10 mL/min/kg
- half-life [3]: 3.3 h
- half-life [21]: 7.3 h
- fraction unbound [22]: 0.004
- Activity (Mus musculus): Active
- bioavailability [23]: 42%
- Papp A→B [24]: 36 ×10⁻⁶ cm/s
- pEC50 [7]: 9.40
- Vd [25]: 5.8 L/kg
- AUC [26]: 8400 ng·h/mL
- Cmax [27]: 1090 ng/mL
- AUC [28]: 630 ng·h/mL
- AUC [29]: 503 ng·h/mL
- AUC [30]: 4920 ng·h/mL
- AUC [4]: 1250 ng·h/mL
- Activity [31]: 98%
- half-life [32]: 4.6 h
- Papp B→A [33]: 41 ×10⁻⁶ cm/s
- pEC50 [34]: 8.00
- Vd [35]: 1.8 L/kg
- bioavailability [36]: 90%
- half-life [37]: 3.4 h
- bioavailability [38]: 13%
- half-life [39]: 6.1 h
- Activity [40]: 36%
- Activity [41]: 32%
- Activity [42]: Non-Toxic
- pEC50 [5]: < 5.00
- pEC50 [6]: 5.16

SMILES: C/C(=C\COc1ccccc1Cc1c(C)ncn1-c1ccc(-c2ccco2)cc1)CCC(=O)O
- Ratio EC50 [1]: >1000
- clearance [2]: 720 mL/min/kg
- half-life [3]: 0.7 h
- pEC50 [7]: 7.23
- AUC [4]: 70 ng·h/mL
- pEC50 [5]: < 5.00

Continued, in another order:

- clearance [2]: 130 mL/min/kg
- half-life [3]: 0.4 h
- AUC [4]: 380 ng·h/mL
- pEC50 [5]: 5.26
- pEC50 [6]: 4.88
SMILES: C/C(=C\COc1ccccc1Cc1c(C)n[nH]c1-c1ccc(-c2ccco2)cc1)CCC(=O)O
- Ratio EC50 [1]: >1000

- pEC50 [5]: < 5.00
- pEC50 [6]: < 4.00
SMILES: Cc1cnc(-c2ccc(F)cc2)n1Cc1ccccc1OCCC[C@@H](C)CC(=O)O
